One data set in a line: Deliquescence Test (Experimental Example 3, salts of (S)-3-aminoquinuclidine). It is filed as physicochemical. The note with it: about 0.5 g allowed to stand for 1 hour, 24 to 26° C., humidity of 75 to 78%, visual evaluation. As to the method: The acid addition salts (about 0.5 g) of (S)-3-aminoquinuclidine obtained in Examples 14 to 19, and Comparative Examples 18 to 19 were allowed to stand for 1 hour, under the conditions of 24 to 26° C., and a humidity of 75 to 78%, and a deliquescence was observed by a visual evaluation.
Consider `N[C@@H]1CN2CCC1CC2.O=[N+]([O-])O.O=[N+]([O-])O` [Comparative Example 18, (S)-3-aminoquinuclidine.dinitrate], for which the Deliquescence entry is recorded as “Gradually”.

On to `N[C@@H]1CN2CCC1CC2.N[C@@H]1CN2CCC1CC2.O=P(O)(O)O.O=P(O)(O)O.O=P(O)(O)O` [Example 14, (S)-3-aminoquinuclidine.sesquiphosphate], for which the Deliquescence result is listed as “Not deliquesce”.

In the case of `N[C@@H]1CN2CCC1CC2.O=S(=O)(O)O` [Example 15, (S)-3-aminoquinuclidine.monosulfate], the Deliquescence entry was “Not deliquesce”.

As for `N[C@@H]1CN2CCC1CC2.O=C(O)/C=C/C(=O)O` [Example 16, (S)-3-aminoquinuclidine.monofumarate], the Deliquescence entry is listed as “Not deliquesce”.

For the compound `Cl.Cl.N[C@@H]1CN2CCC1CC2` [Referential Example 4, (S)-3-aminoquinuclidine.dihydrochloride], the Deliquescence result is “Immediately”.

`Cc1ccc(S(=O)(=O)O)cc1.N[C@@H]1CN2CCC1CC2` [Example 19, (S)-3-aminoquinuclidine.mono-p-toluenesulfonate]: the Deliquescence entry was “Not deliquesce”.

For `N[C@@H]1CN2CCC1CC2.O=C(O)C(=O)O` [Example 18, (S)-3-aminoquinuclidine.monooxalate], the Deliquescence result is “Not deliquesce”.

On to `CC(=O)O.CC(=O)O.N[C@@H]1CN2CCC1CC2` [Comparative Example 19, (S)-3-aminoquinuclidine.diacetate], for which the Deliquescence result is reported as “Immediately”.

`N[C@@H]1CN2CCC1CC2.O=C(O)c1ccc(C(=O)O)cc1` [Example 17, (S)-3-aminoquinuclidine.monoterephthalate]: the Deliquescence result is “Not deliquesce”.

A further data set can be described thus: Deliquescence Test (Experimental Example 2, salts of (R)-3-aminoquinuclidine). Type of data set: physicochemical. As to conditions: about 0.5 g allowed to stand for 1 hour, 24 to 25° C., humidity of 74 to 76%, visual evaluation. On the procedure:
The acid addition salts (about 0.5 g) of (R)-3-aminoquinuclidine obtained in Examples 7 to 13, Referential Example 2, and Comparative Examples 10 to 17 were allowed to stand for 1 hour, under the conditions of 24 to 25° C. and a humidity of 74 to 76%, and a deliquescence was observed by a visual evaluation.
Turning to `N[C@H]1CN2CCC1CC2.O=C(O)/C=C\C(=O)O` [Comparative Example 15, (R)-3-aminoquinuclidine.monomaleate], the Deliquescence entry was “Gradually”.

With `N[C@H]1CN2CCC1CC2.O=C(O)/C=C/C(=O)O` [Example 9, (R)-3-aminoquinuclidine.monofumarate], the Deliquescence result is given as “Not deliquesce”.

`N[C@H]1CN2CCC1CC2.O=C(O)c1ccccc1.O=C(O)c1ccccc1` [Comparative Example 14, (R)-3-aminoquinuclidine.dibenzoate]: the Deliquescence entry is on record as “Immediately”.

Consider `CC1(C)C2CCC1(CS(=O)(=O)O)C(=O)C2.N[C@H]1CN2CCC1CC2` [Example 13, (R)-3-aminoquinuclidine.mono-(−)-10-camphorsulfonate], for which the Deliquescence entry is “Not deliquesce”.

For the compound `Br.Br.N[C@H]1CN2CCC1CC2` [Comparative Example 10, (R)-3-aminoquinuclidine-dihydrobromide], the Deliquescence result was “Gradually”.

On to `N[C@H]1CN2CCC1CC2.O=S(=O)(O)O` [Example 8, (R)-3-aminoquinuclidine.monosulfate], for which the Deliquescence result is “Not deliquesce”.

For the compound `N[C@H]1CN2CCC1CC2.O=C(O)C(=O)O` [Example 11, (R)-3-aminoquinuclidine.monooxalate], the Deliquescence entry is “Not deliquesce”.

Take `Cl.Cl.N[C@H]1CN2CCC1CC2` [Referential Example 2, (R)-3-aminoquinuclidine.dihydrochloride]: the Deliquescence result is recorded as “Immediately”.

In the case of `N[C@H]1CN2CCC1CC2.N[C@H]1CN2CCC1CC2.N[C@H]1CN2CCC1CC2.O=C(O)CC(O)(CC(=O)O)C(=O)O.O=C(O)CC(O)(CC(=O)O)C(=O)O` [Comparative Example 16, (R)-3-aminoquinuclidine.2/3citrate], the Deliquescence result is given as “Immediately”.

With `N[C@H]1CN2CCC1CC2.O=C(O)c1ccc(C(=O)O)cc1` [Example 10, (R)-3-aminoquinuclidine.monoterephthalate], the Deliquescence result is recorded as “Not deliquesce”.

Consider `N[C@H]1CN2CCC1CC2.N[C@H]1CN2CCC1CC2.O=P(O)(O)O.O=P(O)(O)O.O=P(O)(O)O` [Example 7, (R)-3-aminoquinuclidine.sesquiphosphate], for which the Deliquescence entry is reported as “Not deliquesce”.

On to `Cc1ccc(S(=O)(=O)O)cc1.N[C@H]1CN2CCC1CC2` [Example 12, (R)-3-aminoquinuclidine.mono-p-toluenesulfonate], for which the Deliquescence entry is on record as “Not deliquesce”.

Take `CC(=O)O.CC(=O)O.N[C@H]1CN2CCC1CC2` [Comparative Example 12, (R)-3-aminoquinuclidine.diacetate]: the Deliquescence entry was “Immediately”.

Turning to `CS(=O)(=O)O.N[C@H]1CN2CCC1CC2` [Comparative Example 17, (R)-3-aminoquinuclidine.monomesylate], the Deliquescence result is listed as “Gradually”.

Consider `CCC(=O)O.N[C@H]1CN2CCC1CC2` [Comparative Example 13, (R)-3-aminoquinuclidine.monopropionate], for which the Deliquescence entry was “Immediately”.

Consider `N[C@H]1CN2CCC1CC2.O=[N+]([O-])O.O=[N+]([O-])O` [Comparative Example 11, (R)-3-aminoquinuclidine.dinitrate], for which the Deliquescence entry is “Gradually”.

Another data set can be described thus: Deliquescence Test (Experimental Example 1, salts of racemic 3-aminoquinuclidine). It is filed as physicochemical. As to conditions: about 0.5 g allowed to stand for 1 hour, 25 to 27° C., humidity of 76 to 82%, visual evaluation. As to the method: racemic 3-aminoquinuclidine.dihydrochloride of reagent, and the acid addition salts (about 0.5 g) of racemic 3-aminoquinuclidine obtained in Examples 1 to 6 and Comparative Examples 1 to 9 were allowed to stand for 1 hour, under the condition of 25 to 27° C., and a humidity of 76 to 82%, and a deliquescence was observed by a visual evaluation.
On to `CC1(C)C2CCC1(CS(=O)(=O)O)C(=O)C2.NC1CN2CCC1CC2` (racemic) [Example 6, racemic 3-aminoquinuclidine.mono-(±)-10-camphorsulfonate], for which the Deliquescence entry is on record as “Not deliquesce”.

As to `CC(=O)O.CC(=O)O.NC1CN2CCC1CC2` (racemic) [Comparative Example 4, racemic 3-aminoquinuclidine.diacetate], the Deliquescence entry is on record as “Immediately”.

`NC1CN2CCC1CC2.O=S(=O)(O)O` (racemic) [Comparative Example 2, racemic 3-aminoquinuclidine.monosulfate]: the Deliquescence entry was “Gradually”.

`NC1CN2CCC1CC2.O=C(O)C(=O)O` (racemic) [Example 4, racemic 3-aminoquinuclidine.monooxalate]: the Deliquescence entry is on record as “Not deliquesce”.

Consider `NC1CN2CCC1CC2.O=[N+]([O-])O.O=[N+]([O-])O` (racemic) [Comparative Example 3, racemic 3-aminoquinuclidine.dinitrate], for which the Deliquescence entry is on record as “Gradually”.

Consider `Cl.Cl.NC1CN2CCC1CC2` (racemic) [Reagent, racemic 3-aminoquinuclidine.dihydrochloride], for which the Deliquescence result is “Immediately”.

Take `NC1CN2CCC1CC2.O=C(O)c1ccc(C(=O)O)cc1` (racemic) [Example 3, racemic 3-aminoquinuclidine.monoterephthalate]: the Deliquescence result was “Not deliquesce”.

Regarding `NC1CN2CCC1CC2` (racemic) [Example 1, racemic 3-aminoquinuclidine.sesquiphosphate], the Deliquescence result is “Not deliquesce”.

For `CS(=O)(=O)O.NC1CN2CCC1CC2` (racemic) [Comparative Example 9, racemic 3-aminoquinuclidine.monomesylate], the Deliquescence entry was “Gradually”.

Consider `NC1CN2CCC1CC2.O=C(O)/C=C\C(=O)O` (racemic) [Comparative Example 7, racemic 3-aminoquinuclidine.monomaleate], for which the Deliquescence result is reported as “Gradually”.

In the case of `NC1CN2CCC1CC2.O=C(O)c1ccccc1.O=C(O)c1ccccc1` (racemic) [Comparative Example 6, racemic 3-aminoquinuclidine.dibenzoate], the Deliquescence result was “Gradually”.

With `Br.Br.NC1CN2CCC1CC2` (racemic) [Comparative Example 1, racemic 3-aminoquinuclidine-dihydrobromide], the Deliquescence entry is on record as “Gradually”.

Take `CCC(=O)O.NC1CN2CCC1CC2` (racemic) [Comparative Example 5, racemic 3-aminoquinuclidine.monopropionate]: the Deliquescence entry is “Immediately”.

Regarding `NC1CN2CCC1CC2.NC1CN2CCC1CC2.NC1CN2CCC1CC2.O=C(O)CC(O)(CC(=O)O)C(=O)O.O=C(O)CC(O)(CC(=O)O)C(=O)O` (racemic) [Comparative Example 8, racemic 3-aminoquinuclidine.2/3 citrate], the Deliquescence entry is on record as “Immediately”.

For the compound `NC1CN2CCC1CC2.O=C(O)/C=C/C(=O)O` (racemic) [Example 2, racemic 3-aminoquinuclidine.monofumarate], the Deliquescence entry was “Not deliquesce”.

Regarding `Cc1ccc(S(=O)(=O)O)cc1.NC1CN2CCC1CC2` (racemic) [Example 5, racemic 3-aminoquinuclidine.mono-p-toluenesulfonate], the Deliquescence entry was “Not deliquesce”.

The values are drawn from US10370369B2, “Acid addition salt of 3-aminoquinuclidine which does not exhibit deliquescence” (YUKI GOSEI KOGYO CO. LTD., priority 2015, dated 2019).
